Patent US20240240224A1, “FLUORESCENT D-TYPE AMINO ACID METABOLISM MARKER-BASED METHOD FOR DETECTING ANTIBACTERIAL DRUG SENSITIVITY TEST” (priority 2020, published 2024)
Values after ≈ are worked out from the molar mass of the structure shown.

What was measured:
E. faecalis ATCC29212 [1] = assay: FaAST (FDAA metabolic labeling method); format: cell-based, Enterococcus faecalis; settings: unit assumed
Experimental: (§1) Take the colony to be tested that has been cultured overnight on the plate and fully mix it in normal saline to make a uniform bacterial solution. Dilute it into Cation-Adjusted Mueller Hinton Broth (CAMHB) culture medium to make a bacterial solution with OD600=0.05. • 2. Add 45 μl antibiotic solutions of different concentrations to 96-well plates (see Table 1 for antibiotic concentration gradient settings). • 3. Add 50 μl of the bacterial solution prepared in step 1 to the 96-well plate and mix well. • 4. Add 5 μl of 10 mM Cy5-DAA probe (final concentration 0.15 mM, see FIG. 1 for its structure) into each well, mix well, and cultivate in dark for 2 hours. • 5. Add 200 μl After PBS solution is diluted, the fluorescence intensity of each sample is detected by flow cytometry. The flow detection results are shown in FIG. 4-5, showing the curve of the change of antibiotic concentration gradient and fluorescence intensity. The MIC (minimum inhibitory concentration) can be obtained by referring to this curve.
(§2) Bacteria with antibiotic resistance are shown in bold in the following table.

E. faecium Ef26 [2] = assay: BMD susceptibility test; format: cell-based, Enterococcus faecium; settings: unit assumed
E. faecalis ATCC29212 [3] = assay: BMD susceptibility test; format: cell-based, Enterococcus faecalis; settings: unit assumed
E. faecium Ef26 [4] = assay: FaAST (FDAA metabolic labeling method); format: cell-based, Enterococcus faecium; settings: unit assumed
Experimental: as §1, §2

E. faecalis ATCC29212 [5] = settings: cited from earlier work
S. aureus ST59 [6] = assay: Vitek 2 drug sensitivity test; format: cell-based, Staphylococcus aureus; as to Sensibility: key: S: Drug sensitive; R: Drug resistance
S. aureus ST59 [7] = assay: FDAA metabolic labeling susceptibility test (Cy5-DAA probe, flow cytometry); format: cell-based; settings: Staphylococcus aureus; S. aureus ST59; Cy5-DAA probe, 2 hours; read-out: MIC, FDAA
Experimental: as §1

S. aureus ST5 [8] = assay: as above; format: cell-based; settings: Staphylococcus aureus; S. aureus ST5; Cy5-DAA probe, 2 hours; read-out: MIC, FDAA
Experimental: as §1

S. aureus ST398 [9] = assay: as above; format: cell-based; settings: Staphylococcus aureus; S. aureus ST398; Cy5-DAA probe, 2 hours; read-out: MIC, FDAA
Experimental: as §1

S. aureus ST5 [10] = assay: Vitek 2 drug sensitivity test; format: cell-based, Staphylococcus aureus; as to Sensibility: key: S: Drug sensitive; R: Drug resistance
S. aureus ST398 [11] = assay: Vitek 2 drug sensitivity test; format: cell-based, Staphylococcus aureus; as to Sensibility: key: S: Drug sensitive; R: Drug resistance

SMILES | FaAST (MIC) (E. faecalis ATCC29212 [1]) | BMD (MIC) (E. faecium Ef26 [2]) | BMD (MIC) (E. faecalis ATCC29212 [3]) | FaAST (MIC) (E. faecium Ef26 [4]) | CLSI QC range (E. faecalis ATCC29212 [5]) | Sensibility (S. aureus ST59 [6]) | MIC (S. aureus ST59 [6]; Staphylococcus aureus) | MIC (S. aureus ST59 [7]) | MIC (S. aureus ST5 [8]) | MIC (S. aureus ST398 [9]) | Sensibility (S. aureus ST5 [10]) | MIC (S. aureus ST5 [10]; Staphylococcus aureus) | Sensibility (S. aureus ST398 [11]) | MIC (S. aureus ST398 [11]; Staphylococcus aureus)
CC1(C)S[C@@H]2[C@H](NC(=O)Cc3ccccc3)C(=O)N2[C@H]1C(=O)O [Penicillin G, penicillin G] | 4 µg/mL | 64 µg/mL | 2 µg/mL | 32 µg/mL | 1-4 | – | – | – | – | – | – | – | – | –
Cc1onc(-c2ccccc2)c1C(=O)N[C@@H]1C(=O)N2[C@@H]1SC(C)(C)[C@@H]2C(=O)O [OX, oxacillin] | – | – | – | – | – | R | 16 µg/mL (≈ 39.9 µM) | 32 µg/mL (≈ 79.7 µM) | ≥ 1020 µg/mL | 0.25 µg/mL (≈ 0.623 µM) | R | 256 µg/mL (≈ 638 µM) | S | ≤ 0.25 µg/mL
